Data: patent publication US20200165257A1, “INHIBITORS OF PHOSPHOINOSITIDE 3-KINASE AND HISTONE DEACETYLASE FOR TREATMENT OF CANCER” (THE UNITED STATES OF AMERICA, AS REPRESENTED BY THE …, priority 2017, published 2020)

Assays:
[1] = test system: Leukemia Cell Line SR; experiment: cells; assay type: cell-based; details: Homo sapiens; SR; single dose, 10 uM compound concentration; read-out: inhibition of proliferation
[2] = target: PI3Kδ (Homo sapiens, UniProt O00329); experiment: PI3Kδ kinase assay (HTRF); assay type: biochemical; details: symbols ++ / +; read-out: PI3Kδ Inhibition Activity (IC50 class)
Protocol: The PIP3 product is detected by displacement of biotin-PIP3 from an energy transfer complex consisting of Europium labeled anti-GST monoclonal antibody, a GST-tagged pleckstrin homology (PH) domain, biotinylated PIP3 and Streptavidin-Allophycocyanin (APC). […] The PIP3 product formed by PI 3-Kinase(h) activity displaces biotin-PIP3 from the complex resulting in a loss of energy transfer, and thus, a decrease in signal.
First, the kinase reaction with PIP2 substrate is carried out in the presence of ATP, and the reaction is quenched with stop Solution, and then, finally detect by adding Detection Mixture followed by incubation.
HEPES 50 mM (pH7.0), NaN3 0.02%, BSA 0.01%, Orthovanadate 0.1 mM, 1% DMSO.
Detection buffer: HEPES 10 mM (pH7.0), BSA 0.02%, KF 0.16 M, EDTA 4 mM.
10 μM PIP2 substrate (PI(4,5)P2)
10 μM ATP under standard conditions
1. Prepare substrate in freshly prepared Reaction Buffer.
2. Deliver kinase into the substrate solution and gently mix.
3. Deliver compounds in 100% DMSO into the kinase reaction mixture by Acoustic technology (Echo550; nanoliter range), incubate for 10 min at room temperature.
4. Deliver ATP into the reaction mixture to initiate the reaction.
5. Incubate for 30 min at 30° C.
6. Quench the reaction with Stop Solution.
7. Add Detection Mixture, and incubate for overnight.
The emission ratio is converted into μM PIP3 production based on PIP3 standard curves.
The nonlinear regression to obtain the standard curve and IC50 values are performed using Graphpad Prism software.

Sequence of PI3Kδ (O00329 whole entry): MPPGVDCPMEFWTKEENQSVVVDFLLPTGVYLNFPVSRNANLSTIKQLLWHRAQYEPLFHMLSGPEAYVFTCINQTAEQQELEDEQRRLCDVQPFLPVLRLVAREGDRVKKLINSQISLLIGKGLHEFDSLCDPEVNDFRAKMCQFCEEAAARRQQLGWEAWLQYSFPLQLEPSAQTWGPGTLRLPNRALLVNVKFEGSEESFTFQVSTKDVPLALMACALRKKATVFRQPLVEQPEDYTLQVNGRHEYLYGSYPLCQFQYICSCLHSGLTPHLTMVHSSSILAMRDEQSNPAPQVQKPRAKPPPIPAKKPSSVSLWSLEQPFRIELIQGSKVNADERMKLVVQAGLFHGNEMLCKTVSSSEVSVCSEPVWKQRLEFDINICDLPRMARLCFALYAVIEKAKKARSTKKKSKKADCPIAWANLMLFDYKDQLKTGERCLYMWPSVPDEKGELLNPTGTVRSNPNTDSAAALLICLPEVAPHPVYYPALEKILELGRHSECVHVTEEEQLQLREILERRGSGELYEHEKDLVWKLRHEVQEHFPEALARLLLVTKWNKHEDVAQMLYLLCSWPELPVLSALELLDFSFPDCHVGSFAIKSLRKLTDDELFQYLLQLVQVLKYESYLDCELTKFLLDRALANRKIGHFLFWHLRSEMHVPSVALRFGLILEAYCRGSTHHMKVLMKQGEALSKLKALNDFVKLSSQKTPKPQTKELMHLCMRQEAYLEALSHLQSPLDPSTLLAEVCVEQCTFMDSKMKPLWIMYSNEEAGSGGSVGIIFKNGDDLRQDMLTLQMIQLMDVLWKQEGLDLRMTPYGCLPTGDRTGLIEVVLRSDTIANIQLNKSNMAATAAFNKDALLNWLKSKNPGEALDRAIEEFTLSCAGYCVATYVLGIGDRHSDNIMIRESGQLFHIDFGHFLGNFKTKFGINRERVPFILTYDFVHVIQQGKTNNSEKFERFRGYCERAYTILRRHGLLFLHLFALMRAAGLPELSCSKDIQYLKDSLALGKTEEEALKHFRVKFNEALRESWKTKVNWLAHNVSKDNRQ
Sequence of PI3Kδ (P27986 whole entry partner): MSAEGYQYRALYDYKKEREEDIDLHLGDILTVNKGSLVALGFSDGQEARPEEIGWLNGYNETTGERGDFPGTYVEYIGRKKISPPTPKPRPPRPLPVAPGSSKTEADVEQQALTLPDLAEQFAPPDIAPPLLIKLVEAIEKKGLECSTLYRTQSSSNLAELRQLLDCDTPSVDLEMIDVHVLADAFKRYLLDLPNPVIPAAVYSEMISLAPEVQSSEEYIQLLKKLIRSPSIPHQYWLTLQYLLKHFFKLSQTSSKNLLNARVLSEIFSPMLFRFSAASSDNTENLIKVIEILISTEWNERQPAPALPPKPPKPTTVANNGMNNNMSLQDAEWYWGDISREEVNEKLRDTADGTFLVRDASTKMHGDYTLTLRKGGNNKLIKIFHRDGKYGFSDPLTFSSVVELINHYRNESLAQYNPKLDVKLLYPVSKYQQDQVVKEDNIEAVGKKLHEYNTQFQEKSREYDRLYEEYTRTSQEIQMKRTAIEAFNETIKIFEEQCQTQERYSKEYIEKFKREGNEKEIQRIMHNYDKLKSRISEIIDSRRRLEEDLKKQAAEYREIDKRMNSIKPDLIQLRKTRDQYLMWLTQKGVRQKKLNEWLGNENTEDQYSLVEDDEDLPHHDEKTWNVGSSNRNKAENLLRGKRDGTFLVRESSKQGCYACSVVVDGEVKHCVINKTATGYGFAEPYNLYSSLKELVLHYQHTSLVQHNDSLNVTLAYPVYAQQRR

For `CC[C@H](Nc1nc(N)nc(C)c1C#N)c1nc2cccc(CN(C)c3ncc(C(=O)NO)cn3)c2c(=O)n1-c1ccccc1` [LII, (S)-2-(((2-(1-((2-amino-5-cyano-6-methylpyrimidin-4-yl)amino)propyl)-4-oxo-3-phenyl-3,4-dihydroquinazolin-5-yl)methyl)(methyl)amino)-N-hydroxypyrimidine-5-carboxamide], the inhibition at 10 µM [1] was over 50% and the IC50 [2] was under 100 nM.
